Where “and” joins values, the source holds several entries; their conditions need not be identical. Identical values can stand only once.
What was measured:
mouse GPR35 = mouse GPR35 (Mus musculus, UniProt Q9ES90); test: β-arrestin-based interaction assay, agonist potency at mouse GPR35; assay type: cell-based
HepG2 cells = test: Label-free cellular impedance assay (xCELLigence) in HepG2 cells; assay type: cell-based, human
Description: HepG2 cells were seeded onto xCELLigence E plates (2 × 10^4 cells/well) and incubated for 24 h at 37 °C. To evaluate GPR35 activation and its downstream G protein signaling, HepG2 cells or primary mouse hepatocytes were exposed to GPR35 antagonists or G protein inhibitors 1 h (overnight for Pertussis toxin) prior to GPR35 agonist stimulation. After the addition of GPR35 agonist or vehicle control, the impedance (represented as “cell index”) was recorded every 30 s over a 2 h period using xCELLigence RTCA (Agilent). Each experiment was repeated at least three times.

[1] = tested on: GPR35 genome-edited HepG2 clones; test: Label-free cellular impedance assay in GPR35 genome-edited HepG2 clones 19 and 27; assay type: cell-based, human; conditions: 1 × 10^–5 M
Text: Expression of full-length mRNA from the GPR35 gene was eliminated using a dual synthetic gRNA/RNP approach[43] with one guide cutting the intron and one in the exon region to generate a nonfunctional GPR35 protein. The gRNAs were designed with the CRISPR Finder (Welcome Sanger Institute). HepG2 cells were transfected with the Neon Transfection System from Thermo Fisher Scientific (Waltham, MA), according to the manufacturer’s instructions. Briefly, CrRNA and tracrRNA were annealed to gRNA at 95 °C for 5 min. Next, cells were transfected with gRNA, Cas9, and the electroporation enhancer, according to the manufacturer’s instructions. All crRNAs, tracrRNA, SpCas9 nuclease, and the electroporation enhancer were purchased from Integrated DNA Technologies (Coralville, IA). Transfected cells were plated and analyzed for editing efficiency 24–48 h after electroporation. Single-cell clones were generated by single-cell FACS sorting. Clones were expanded and to access editing efficiency, genomic DNA from cell clones was extracted and subjected to PCR to confirm the genome deletion. To further quantify and capture the genomic DNA deletion, PCR primers listed in Table S1 were designed to amplify the genomic DNA surrounding the target site. The PCR primers were linked to the sequences of the Illumina Nextera adapters. The amplified PCR products were subjected to paired-end sequencing using NextSeq500 from Illumina using paired-end chemistry with a 150-bp read length. In addition, mRNA from KO clones was isolated and subjected to RT-PCR. To further confirm the abrogation of GPR35 activation in CRISPR KO clones, KO cells were seeded onto xCELLigence E plates (2 × 10^4 cells/well) for 24 h at 37 °C prior to the treatment of GPR35 agonists. The impedance was recorded using xCELLigence RTCA. […]
HepG2 cells were seeded onto xCELLigence E plates (2 × 10^4 cells/well) and incubated for 24 h at 37 °C. […] After the addition of GPR35 agonist or vehicle control, the impedance (represented as “cell index”) was recorded every 30 s over a 2 h period using xCELLigence RTCA (Agilent). […]

[2] = tested on: GPR35 knock-out clones of HepG2 cells; test: Oil Red O lipid accumulation in GPR35 knock-out clones of HepG2 cells; assay type: cell-based, human; conditions: lodoxamide 1 × 10^–6 M or 1 × 10^–5 M
Description: Human hepatocellular carcinoma HepG2 cells were grown in Minimum Essential Medium (MEM) supplemented with 10% fetal bovine serum (FBS), 2 mM L-glutamine, 1× non-essential amino acid, 1 mM sodium pyruvate, and 1× penicillin/streptomycin. Materials for cell culture were all from Sigma-Aldrich (St. Louis, MO) or Thermo Fisher Scientific (Waltham, MA). Cells were incubated in a humidified CO2 incubator at 37 °C. Experiments were performed when cell confluence reached 80%. Cells were seeded onto a 12-well plate (1 × 10^5 cells/well) for 24 h prior to drug treatment. […] Expression of full-length mRNA from the GPR35 gene was eliminated using a dual synthetic gRNA/RNP approach[43] with one guide cutting the intron and one in the exon region to generate a nonfunctional GPR35 protein. The gRNAs were designed with the CRISPR Finder (Welcome Sanger Institute). […] Transfected cells were plated and analyzed for editing efficiency 24-48 h after electroporation. […] To further quantify and capture the genomic DNA deletion, PCR primers listed in Table S1 were designed to amplify the genomic DNA surrounding the target site. […] The amplified PCR products were subjected to paired-end sequencing using NextSeq500 from Illumina using paired-end chemistry with a 150-bp read length. […] The impedance was recorded using xCELLigence RTCA. […] Lipid accumulation was measured by Oil Red O staining.

[3] = tested on: hepatocytes from hGPR35a-HA-expressing mice; test: Label-free cellular impedance assay in hepatocytes from hGPR35a-HA-expressing mice; assay type: cell-based, mouse; conditions: lodoxamide 1 × 10^–7 M
[4] = tested on: primary mouse hepatocytes; set-up: method as in Nam et al. 37; conditions: ref Nam et al. 37; read-out: EC50 to limit lipid accumulation in mouse hepatocytes; cited from earlier work

Sequence of mouse GPR35 (Q9ES90 whole entry): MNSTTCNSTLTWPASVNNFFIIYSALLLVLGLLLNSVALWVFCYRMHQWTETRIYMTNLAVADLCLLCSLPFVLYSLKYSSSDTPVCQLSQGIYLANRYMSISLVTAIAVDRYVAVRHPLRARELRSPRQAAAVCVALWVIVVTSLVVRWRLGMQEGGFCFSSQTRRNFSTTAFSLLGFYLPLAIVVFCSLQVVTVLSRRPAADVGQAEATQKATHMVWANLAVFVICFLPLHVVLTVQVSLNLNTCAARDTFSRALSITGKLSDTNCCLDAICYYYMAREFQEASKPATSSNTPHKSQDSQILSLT

N#Cc1cc(NC(=O)C(=O)O)c(Cl)c(NC(=O)C(=O)O)c1 [lodoxamide, 2-[2-chloro-5-cyano-3-(oxaloamino)anilino]-2-oxoacetic acid]
fold lower potency at mouse GPR35 than at human GPR35 (mouse GPR35; mouse versus human GPR35): ~450 fold and ~500 fold
EC50 (mouse GPR35; β-arrestin-based interaction assay, read-out: mouse GPR35, pEC50 (converted)): 1.91 µM
impedance signal in parental HepG2 cells (HepG2 cells; 1 × 10^–5 M): produced positive signals
time for the impedance signal to reach a plateau (HepG2 cells; HepG2 cells, lodoxamide 1 × 10^–8 M): ≤ 5 min
impedance signal in GPR35 genome-edited clones 19 and 27 [1]: not in either clone 19 or 27
suppression of the effect of T0901317 on lipid accumulation in GPR35 knock-out clones [2]: unable to suppress the effect of T0901317
cellular impedance response in hepatocytes from hGPR35a-HA-expressing mice [3]: time-dependent increase in cellular impedance
EC50 [4]: 0.0061 µM

Source: paper PMC8669712, “G Protein-Coupled Receptor GPR35 Suppresses Lipid Accumulation in Hepatocytes” (ACS Pharmacology & Translational Science, 2021)
